Experimental data as given in patent US4609655A, “Anti-ulcer imidazo-quinoline, indole and benzazepine derivatives” (John Wyeth & Brother, Ltd., priority 1983, dated 1986).
Read-outs that look alike come from different tables or passages of the source.

Columns and labels:
[1] = Stress-induced erosion test of Senay and Levine (anti-ulcer activity); type: in vivo; conditions: Dose 100 mg/kg
Protocol: Anti-ulcer activity was determined by the stressinduced erosion test of Senay and Levine, Proc. Soc. Exp. Biol. Med., 124, 1221-3 (1967).

H^+ /K^+ ATPase = biological target: T1, H^+ /K^+ ATPase (Oryctolagus cuniculus, UniProt P27112); test: Inhibition of 14C-aminopyrine uptake in rabbit isolated gastric glands stimulated by DBcAMP or high K+ (H+/K+ ATPase inhibition); type: cell-based; conditions: compound at 10^-4 M, % inhibition of maximum response
T1 construct: Rabbit gastric glands are isolated from gastric mucosa; from tissue; host or cells: isolated gastric glands from gastric mucosa of the corpus region of rabbit stomach
Protocol: Compounds of formula I were also tested for anti-secretory activity by their ability to inhibit the highly specific proton transporting enzyme H^+ /K^+ ATPase.
Potential H+/K^+ ATPase inhibitors are evaluated by a technique involving the measurement of aminopyrine accumulation in rabbit isolated gastric glands. Amino-pyrine, which is a weak base, accumulates in acid-secreting cells; therefore, uptake of aminopyrine is increased by secretagogues and an inhibitor of acid secretion will reduce the response to one or more secretagogues depending upon its site of action. Compounds which reduce the response to dibutyryl cyclic adenosine monophosphate (DBcAMP) stimulation are assumed to have an intracellular site of action, and those which reduce the response to both DBcAMP and high potassium ion concentration (K^+) are thought to have an intracellular site of action at the secretory surface of the parietal cell, involving the highly specific proton--transporting enzyme, H^+ /K^+ ATPase. The following test procedure is used:
Rabbit gastric glands are isolated from gastric mucosa from the corpus region of the stomach by a method based on one described by Berglindh T., Obrink K. J., Acta Physiol. Scand. 96, 150-159 (1976). Measurement of aminopyrine uptake is carried out using a modification of the method described by Berglindh T., Hellander H. F., Obrink K. J. (ibid, 97, 401-414, 1976).
Compounds are tested at a concentration of 10^-4 M, initially, and in some cases at lower concentrations, for their ability to inhibit ^14 C-aminopyrine uptake in gastric glands, stimulated by DBcAMP and high K^+ respectively. Results are expressed as the % inhibition of the maximum response to the secretagogue induced by the test compound. An inhibitor of H^+ /K^+ ATPase would be expected to reduce the response to both secretagogues.

[2] = DBcAMP stimulation, read-out: % Inhibition to Stimulation by DBcAMP at 10^-4
[3] = high K+ stimulation, read-out: % Inhibition to Stimulation by K^+ at 10^-4

T1 sequence (P27112 whole entry): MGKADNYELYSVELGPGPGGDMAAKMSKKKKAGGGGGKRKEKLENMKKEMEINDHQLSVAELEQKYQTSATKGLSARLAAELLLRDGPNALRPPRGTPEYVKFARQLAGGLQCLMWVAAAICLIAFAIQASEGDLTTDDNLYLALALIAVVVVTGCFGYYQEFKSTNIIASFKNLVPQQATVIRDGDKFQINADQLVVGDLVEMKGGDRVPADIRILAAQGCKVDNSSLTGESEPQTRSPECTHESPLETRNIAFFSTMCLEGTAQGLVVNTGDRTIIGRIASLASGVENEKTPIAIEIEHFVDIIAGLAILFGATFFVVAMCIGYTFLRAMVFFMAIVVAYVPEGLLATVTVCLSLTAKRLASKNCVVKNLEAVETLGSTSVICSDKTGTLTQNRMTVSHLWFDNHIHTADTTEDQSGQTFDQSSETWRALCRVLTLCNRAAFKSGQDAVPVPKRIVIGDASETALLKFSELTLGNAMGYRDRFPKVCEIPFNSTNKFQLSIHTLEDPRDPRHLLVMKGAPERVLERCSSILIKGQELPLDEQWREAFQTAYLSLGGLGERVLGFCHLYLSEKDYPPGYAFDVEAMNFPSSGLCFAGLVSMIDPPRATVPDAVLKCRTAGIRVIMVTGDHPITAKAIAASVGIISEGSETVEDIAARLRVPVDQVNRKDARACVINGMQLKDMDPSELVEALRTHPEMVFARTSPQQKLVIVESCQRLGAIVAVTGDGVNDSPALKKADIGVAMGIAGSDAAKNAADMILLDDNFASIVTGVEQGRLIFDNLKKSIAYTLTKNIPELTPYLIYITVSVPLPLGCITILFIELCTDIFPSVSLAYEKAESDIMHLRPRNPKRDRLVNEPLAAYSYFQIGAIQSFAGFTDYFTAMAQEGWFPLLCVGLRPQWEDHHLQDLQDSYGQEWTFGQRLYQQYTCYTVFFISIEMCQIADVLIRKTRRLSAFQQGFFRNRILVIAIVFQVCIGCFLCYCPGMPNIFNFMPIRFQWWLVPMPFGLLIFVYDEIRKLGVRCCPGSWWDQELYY
T1 sequence (P18597 whole entry partner): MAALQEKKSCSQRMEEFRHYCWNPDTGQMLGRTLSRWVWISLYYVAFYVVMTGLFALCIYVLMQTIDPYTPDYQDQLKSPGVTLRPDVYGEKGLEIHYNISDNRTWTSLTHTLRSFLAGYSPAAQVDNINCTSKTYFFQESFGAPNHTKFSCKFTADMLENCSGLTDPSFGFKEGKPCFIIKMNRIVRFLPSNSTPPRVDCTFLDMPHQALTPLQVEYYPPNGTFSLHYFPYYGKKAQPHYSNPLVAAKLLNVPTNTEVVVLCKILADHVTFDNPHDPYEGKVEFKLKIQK

c1ccc(CSc2nc3cccc4c3n2CCC4)cc1 [Example 1, 2-Benzylthio-5,6,-dihydro-[4H]-imidazo [4,5,1-ij]-quinoline]
Stress Induced Erosion (Senay & Levine) % Inhibition [1]: 83% | inhibition at 100 µM (H^+ /K^+ ATPase; [2]): 70% | inhibition at 100 µM (H^+ /K^+ ATPase; [3]): 111%

Clc1cccc(CSc2nc3cccc4c3n2CCC4)c1 [Example 2, 2-(3-Chlorobenzylthio)-5,6,-dihydro-[4H]-imidazo[4,5,1,-ij]quinoline]
inhibition at 100 µM (H^+ /K^+ ATPase; [2]): 69% | inhibition at 100 µM (H^+ /K^+ ATPase; [3]): 54%

Fc1ccc(CSc2nc3cccc4c3n2CCC4)cc1 [Example 3, 5,6-Dihydro-2-(4-fluorophenylmethylthio)-[4H]-imidazo-[4,5,1,-ij]quinoline]
Stress Induced Erosion (Senay & Levine) % Inhibition [1]: 62% | inhibition at 100 µM (H^+ /K^+ ATPase; [2]): 6.7% | inhibition at 100 µM (H^+ /K^+ ATPase; [3]): 76%

Clc1ccccc1CSc1nc2cccc3c2n1CCC3 [Example 4, 2-(2-Chlorophenylmethylthio)-5,6-dihydro-[4H]-imidazo-[4,5,1-ij]quinoline]
Stress Induced Erosion (Senay & Levine) % Inhibition [1]: 55% | inhibition at 100 µM (H^+ /K^+ ATPase; [2]): 32.9% | inhibition at 100 µM (H^+ /K^+ ATPase; [3]): 83.5%

Clc1ccc(CSc2nc3cccc4c3n2CCC4)cc1 [Example 5, 2-(4-Chlorophenylmethylthio)-5,6-dihydro-[4H]-imidazo-[4,5,1-ij]quinoline]
inhibition at 100 µM (H^+ /K^+ ATPase; [2]): 53% | inhibition at 100 µM (H^+ /K^+ ATPase; [3]): 109%

Fc1ccccc1CSc1nc2cccc3c2n1CCC3 [Example 6, 5,6-Dihydro-2-(2-fluorophenylmethylthio)-[4H]-imidazo-[4,5,1-ij]quinoline]
inhibition at 100 µM (H^+ /K^+ ATPase; [2]): 40.6% | inhibition at 100 µM (H^+ /K^+ ATPase; [3]): 93%

C1=Cc2cccc3nc(SCc4ccccc4)n(c23)C1 [Example 7, 2-Benzylthio-[4H]-imidazo[4,5,1-ij]quinoline]
Stress Induced Erosion (Senay & Levine) % Inhibition [1]: 54% | inhibition at 100 µM (H^+ /K^+ ATPase; [2]): 40% | inhibition at 100 µM (H^+ /K^+ ATPase; [3]): 63%
